Results published in patent publication US8624027B2, “Combination therapy for treating cancer and diagnostic assays for use therein” (AbbVie Inc., priority 2005, dated 2014).
Like-named read-outs stand apart in the source and are kept apart here.

Columns and labels:
[1] = test system: NCI-H146 human small cell lung carcinoma cells; assay: Cellular efficacy in human tumor cell line (MTS viability assay); format: cell-based; conditions: 10% human serum, 48 hours
Method: NCI-H146 (ATCC, Manassas, Va.) human small cell lung carcinoma cells were plated 50,000 cells per well in 96-well tissue culture plates in a total volume of 100 μL tissue culture medium supplemented with 10% human serum (Invitrogen, Carlsbad, Calif.) instead of fetal bovine serum and treated with a 2-fold serial dilution of the compounds of interest from 10 μM to 0.020 μM. Each concentration was tested in duplicate at least 3 separate times. The number of viable cells following 48 hours of compound treatment was determined using the CellTiter 96® AQueous non-radioactive cell proliferation MTS assay according to manufacturer's recommendations (Promega Corp., Madison, Wis.).

[2] = Pharmacokinetic evaluation in rat; format: in vivo; conditions: male, Sprague-Dawley, plasma; for AUC / Cmax: 5 mg/kg, oral; for AUC(0-inf): single 5 mg/kg oral dose, Table 1, read-out: Pharmacokinetic area under the plasma concentration Curve (rat) AUC0-∞
Method: The pharmacokinetic behavior of compounds of this disclosure was determined following a single 2 mg/kg intravenous or 5 mg/kg oral dose in male Sprague-Dawley derived rats (n=3 per group). The compounds were prepared as 2 mg/mL solution in a 10% DMSO in PEG-400 formulation for both oral and intravenous administration. The 1 mL/kg intravenous dose was administered as a slow bolus (about 1-2 minutes) in the jugular vein of a rat under light ether anesthetic. The oral dose was administered by gavage. Serial blood samples were obtained from a tail vein of each rat prior 0.1 (IV only), 0.25, 0.5, 1, 1.5, 2, 3, 4, 6, 8 and 24 hours after dosing. The heparinized samples were thoroughly mixed and placed in an ice bath. Plasma was separated by centrifugation and stored frozen prior to analysis.
The compounds of interest were separated from the plasma using protein precipitation with acetonitrile. A plasma (100-200 μL, sample or spiked standard) aliquot was combined with 50 μL of internal standard (structurally related analog prepared in acetonitrile) and 1 ml acetonitrile in a 96-well polypropylene deep well plate. The plates were vortexed for 30 seconds followed by centrifugation (3500 rpm×15 minutes, 4° C.). In an automated manner, the supernatant was transferred to a clean 96-well plate. The samples were evaporated to near dryness on a Micro-Vap™ under a stream of dry nitrogen over low heat (˜37° C.). The samples were reconstituted vortexing with 0.2 mL 5% DMSO in acetonitrile. A 0.1-0.2 ml aliquot of acetonitrile: 0.1% trifluoroacetic acid (20:80, by volume) was added to each well, followed by an additional 30 second vortexing. The plates were centrifuged (3500 rpm×15 minutes, 4° C.) prior to HPLC-MS/MS analysis. Samples were analyzed simultaneously with spiked plasma standards. All samples from each study were analyzed as a single batch on the LC-MS/MS.
The compounds of interest and the internal standard were separated from each other and co-extracted contaminants on a 50×3 mm Keystone Betasil CN 5 μm column with an acetonitrile: 0.1% trifluoroacetic acid mobile phase (50:50, by volume) at a flow rate of 0.7 ml/min. Analysis was performed on a Sciex API 300™ Biomolecular Mass Analyzer using a heated nebulizer interface. Peak areas of the title compounds and internal standards were determined using the Sciex MacQuan™ software. Calibration curves were derived from peak area ratio (parent drug/internal standard) of the spiked rat plasma standards using least squares linear regression of the ratio versus the theoretical concentration. The methods were generally linear over the range of the standard curve (correlation coefficients >0.99) with an estimated quantitation limit of 0.01 μg/mL. The plasma concentration data for each animal were submitted to multi-exponential curve fitting using WinNonlin. The area under the plasma concentration-time curve from 0 to t hours (time of the last measurable plasma concentration) after dosing (AUC0-t) was calculated using the linear trapezoidal rule for the plasma concentration-time profiles. The residual area extrapolated to infinity, determined as the final measured plasma concentration (Ct) divided by the terminal elimination rate constant (β), was added to AUC0-t to produce the total area under the curve (AUC0-∞). Ki values shown in the tables below were determined using Wang's equation (Wang Z X., An Exact Mathematical Expression For Describing Competitive Binding Of Two Different Ligands To A Protein Molecule. FEBS Lett. 1995; 360:111-4)).

[3] = molecular target: T1, Bcl-2 protein (Homo sapiens, UniProt P10415, DELINS35-91DVEENRTEAPEGTESE, form not given); assay: Bcl-2 binding affinity, fluorescence polarization with fluorescein-labeled BAX peptide; conditions: Wang's equation, read-out: Target Binding Affinity Ki (Bcl-2)
T1 construct: fused on or other part: A short piece of the Bcl-xL (Q07817) loop replaces Bcl-2 loop residues 35-91; The C-terminal membrane anchor is absent
T1 sequence (P10415 with tags, fused parts or gaps with the stated changes): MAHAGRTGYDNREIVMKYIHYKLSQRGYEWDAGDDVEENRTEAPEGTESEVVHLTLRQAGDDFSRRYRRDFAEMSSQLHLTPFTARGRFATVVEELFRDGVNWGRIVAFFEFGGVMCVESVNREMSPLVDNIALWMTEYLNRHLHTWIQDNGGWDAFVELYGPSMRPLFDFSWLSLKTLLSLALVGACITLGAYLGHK

[4] = molecular target: Bcl-XL protein (Homo sapiens, UniProt Q07817); assay: Bcl-XL binding affinity, fluorescence polarization with fluorescein-labeled BAD peptide; conditions: Wang's equation, read-out: Target Binding Affinity Ki (Bcl-XL)
Chain of Bcl-XL protein (Q07817 with tags, fused parts or gaps DEL45-84): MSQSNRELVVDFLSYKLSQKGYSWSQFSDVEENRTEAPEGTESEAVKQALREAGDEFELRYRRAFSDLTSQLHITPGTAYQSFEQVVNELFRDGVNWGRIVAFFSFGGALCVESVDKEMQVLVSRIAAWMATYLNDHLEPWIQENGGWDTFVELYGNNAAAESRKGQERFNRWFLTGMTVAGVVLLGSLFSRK
Method: A mixture comprising 125 μL per well of assay buffer (20 mM phosphate buffer (pH 7.4), 1 mM EDTA, 50 mM NaCl, 0.05% PF-68), 6 nM of Bcl-XL protein (prepared as described in Science 1997, 275, 983-986), 1 nM fluorescein-labeled BAD peptide (prepared in-house) and the DMSO solution of the compound was shaken for 2 minutes and placed in a LJL Analyst (LJL Bio Systems, CA). A negative control (DMSO, 15 nM BAD peptide, assay buffer) and a positive control (DMSO, 1 nM BAD peptide, 6 nM Bcl-XL, assay buffer) were used to determine the range of the assay. Polarization was measured at room temperature using a continuous Fluorescein lamp (excitation 485 nm, emission 530 nm). Percentage of inhibition was determined by (1-((mP value of well-negative control)/range))×100%.

[5] = Table 2, read-out: Pharmacokinetic area under the plasma concentration curve (rat) AUC
[6] = Table 2, read-out: Pharmacokinetic peak plasma concentration (rat) Cmax
[7] = NCI-H146, Table 2, read-out: NCI-H146 Cellular Efficacy H146, EC50
[8] = NCI-H146, Table 1, read-out: NCI-H146 Cellular Efficacy EC50
[9] = Table 3, read-out: Pharmacokinetic area under the plasma concentration Curve (rat) AUC
[10] = Table 3, read-out: Pharmacokinetic peak plasma concentration (rat) Cmax
[11] = NCI-H146, Table 3, read-out: NCI-H146 Cellular Efficacy H146 EC50

Row | Molecule | EC50 ([1]; Table 1, read-out: NCI-H146 Cellular Efficacy EC50) [nM] | AUC [2, 5] [µM·h] | Cmax [2, 6] [nM] | EC50 [1, 7] [nM] | Ki [3] [nM] | Ki [4] [nM] | AUC(0-inf) [2] [µM·h] | EC50 [1, 8] [nM] | AUC [2, 9] [µM·h] | Cmax [2, 10] [nM] | EC50 [1, 11] [nM]
1 | 3-((chloro(difluoro)methyl)sulfonyl)-N-(4-(4-((2-(4-chlorophenyl)-4,4-dimethylcyclohex-1-en-1-yl)methyl)piperazin-1-yl)benzoyl)-4-(((1R)-3-(dimethylamino)-1-((phenylsulfanyl)methyl)propyl)amino)benzenesulfonamide [Example 28] | 24.2 | – | – | – | – | – | – | – | – | – | –
2 | CN(C)CC[C@H](CSc1ccccc1)Nc1ccc(S(=O)(=O)NC(=O)c2ccc(N3CCN(Cc4ccccc4-c4ccc(Cl)cc4)CC3)cc2)cc1C(F)(F)F [A, reference compound] | – | 4.41 | 371 | 1600 | – | – | – | – | – | – | –
3 | CN(C)CC[C@H](CSc1ccccc1)Nc1ccc(S(=O)(=O)NC(=O)c2ccc(N3CCN(Cc4ccccc4-c4ccc(Cl)cc4)CC3)cc2)cc1[N+](=O)[O-] [B, reference compound] | – | 0.283 | 39 | 63 | – | – | – | – | – | – | –
4 | CN(C)CC[C@H](CSc1ccccc1)Nc1ccc(S(=O)(=O)NC(=O)c2ccc(N3CCN(Cc4ccccc4-c4ccc(Cl)cc4)CC3)cc2)cc1C#N [C, reference compound] | – | 1.92 | 315 | 1810 | – | – | – | – | – | – | –
5 | CN(C)CC[C@H](CSc1ccccc1)Nc1ccc(S(=O)(=O)NC(=O)c2ccc(N3CCN(Cc4ccccc4-c4ccc(Cl)cc4)CC3)cc2)c(F)c1C(F)(F)F [D, reference compound] | – | 3.83 | 386 | 7330 | – | – | – | – | – | – | –
6 | CC1(C)CCC(CN2CCN(c3ccc(C(=O)NS(=O)(=O)c4ccc(N[C@H](CCN5CCOCC5)CSc5ccccc5)c(S(=O)(=O)C(F)(F)Cl)c4)cc3)CC2)=C(c2ccc(Cl)cc2)C1 [Example 2, 3-((chloro(difluoro)methyl)sulfonyl)-N-(4-(4-((2-(4-chlorophenyl)-4,4-dimethylcyclohex-1-en-1-yl)methyl)piperazin-1-yl)benzoyl)-4-(((1R)-3-(morpholin-4-yl)-1-((phenylsulfanyl)methyl)propyl)amino)benzenesulfonamide] | – | – | – | – | ≤ 1 | ≤ 1 | 7.01 | 29.1 | – | – | –
7 | O=C(NS(=O)(=O)c1ccc(N[C@H](CCN2CCOCC2)CSc2ccccc2)c(S(=O)(=O)C(F)(F)Cl)c1)c1ccc(N2CCN(CC3=C(c4ccc(Cl)cc4)CCCC3)CC2)cc1 [Example 3, 3-((chloro(difluoro)methyl)sulfonyl)-N-(4-(4-((2-(4-chlorophenyl)-1-cyclohex-1-en-1-yl)methyl)piperazin-1-yl)benzoyl)-4-(((1R)-3-(morpholin-4-yl)-1-((phenylsulfanyl)methyl)propyl)amino)benzenesulfonamide] | – | – | – | – | ≤ 1 | ≤ 1 | 4.13 | 28.8 | 4.13 | 385 | 29
8 | CC(C)N(C)CC[C@H](CSc1ccccc1)Nc1ccc(S(=O)(=O)NC(=O)c2ccc(N3CCN(CC4=C(c5ccc(Cl)cc5)CCC(C)(C)C4)CC3)cc2)cc1S(=O)(=O)C(F)(F)F [Example 4, N-(4-(4-((2-(4-chlorophenyl)-5,5-dimethylcyclohex-1-en-1-yl)methyl)piperazin-1-yl)benzoyl)-4-(((1R)-3-(isopropyl(methyl)amino)-1-((phenylsulfanyl)methyl)propyl)amino)-3-((trifluoromethyl)sulfonyl)benzenesulfonamide] | – | – | – | – | ≤ 1 | ≤ 1 | 6.34 | 58.7 | – | – | –
9 | CC(C)N(C)CC[C@H](CSc1ccccc1)Nc1ccc(S(=O)(=O)NC(=O)c2ccc(N3CCN(CC4=C(c5ccc(Cl)cc5)CCCCC4)CC3)cc2)cc1S(=O)(=O)C(F)(F)F [Example 5, N-(4-(4-((2-(4-chlorophenyl)-1-cyclohepten-1-yl)methyl)piperazin-1-yl)benzoyl)-4-(((1R)-3-(isopropyl(methyl)amino)-1-((phenylsulfanyl)methyl)propyl)amino)-3-((trifluoromethyl)sulfonyl)benzenesulfonamide] | – | – | – | – | ≤ 1 | ≤ 1 | 2.22 | 38.8 | – | – | –
10 | O=C(NS(=O)(=O)c1ccc(N[C@H](CCN2C[C@@H]3C[C@H]2CO3)CSc2ccccc2)c(S(=O)(=O)C(F)(F)Cl)c1)c1ccc(N2CCN(CC3=C(c4ccc(Cl)cc4)CCCC3)CC2)cc1 [Example 6, 3-((chloro(difluoro)methyl)sulfonyl)-N-(4-(4-((2-(4-chlorophenyl)cyclohex-1-en-1-yl)methyl)piperazin-1-yl)benzoyl)-4-(((1R)-3-((1S,4S)-2-oxa-5-azabicyclo[2.2.1]hept-5-yl)-1-((phenylsulfanyl)methyl)propyl)amino)benzenesulfonamide] | – | – | – | – | ≤ 1 | ≤ 1 | 0.91 | 1 | 0.913 | 113 | 10
11 | O=C(NS(=O)(=O)c1ccc(N[C@H](CCN2CCOCC2)CSc2ccccc2)c(S(=O)(=O)C(F)(F)F)c1)c1ccc(N2CCN(CC3=C(c4ccc(Cl)cc4)CCCC3)CC2)cc1 [Example 7, N-(4-(4-((2-(4-chlorophenyl)cyclohex-1-en-1-yl)methyl)piperazin-1-yl)benzoyl)-4-(((1R)-3-(morpholin-4-yl)-1-((phenylsulfanyl)methyl)propyl)amino)-3-((trifluoromethyl)sulfonyl)benzenesulfonamide] | – | – | – | – | ≤ 1 | ≤ 1 | 3.87 | 58.9 | 3.87 | 518 | 59
12 | CN(C)CC[C@H](CSc1ccccc1)Nc1ccc(S(=O)(=O)NC(=O)c2ccc(N3CCN(CC4=C(c5ccc(Cl)cc5)CC(C)(C)CC4)CC3)cc2)cc1S(=O)(=O)C(F)(F)Cl [Example 28, 3-((chloro(difluoro)methyl)sulfonyl)-N-(4-(4-((2-(4-chlorophenyl)-4,4-dimethylcyclohex-1-en-1-yl)methyl)piperazin-1-yl)benzoyl)-4-(((1R)-3-(dimethylamino)-1-((phenylsulfanyl)methyl)propyl)amino)benzenesulfonamide] | – | – | – | – | ≤ 1 | ≤ 1 | – | – | – | – | –
13 | CN(C)CC[C@H](CSc1ccccc1)Nc1ccc(S(=O)(=O)NC(=O)c2ccc(N3CCN(CC4=C(c5ccc(Cl)cc5)CCCC4)CC3)cc2)cc1[N+](=O)[O-] [G, reference compound] | – | – | – | – | – | – | – | – | 0.507 | 57 | 26
14 | CN(C)CC[C@H](CSc1ccccc1)Nc1ccc(S(=O)(=O)NC(=O)c2ccc(N3CCN(CC4=C(c5ccc(Cl)cc5)CCCC4)CC3)cc2)cc1C(F)(F)F [H, reference compound] | – | – | – | – | – | – | – | – | 1.97 | 215 | 410
